According to patent EP2060564A1, “Non-peptidic promoters of apoptosis” (Ludwig-Maximilians-Universität München, priority 2007, dated 2009):
“And” between values parts separate entries of the source, which are not always exact repeats. Equal entries are not always repeated.

What was measured:
[1] = system: Human leukemia Jurkat T cells; assay: Quantification of apoptosis (Nicoletti, PI staining, flow cytometry) in Jurkat cells; type: cell-based; settings: mean value and standard deviation (C.I.95), n = 3
Procedure: Cell Culture. Human leukemia Jurkat T cells (clone J16), Jurkat T-cells stably transfected with either empty vector (Jurkat vector, pBabe Jurkat) or XIAP (Jurkat-XIAP) as well as the BIR-3 domain only (BIR-3-sp-RING-Jurkat) (kindly provided by Dr. Colin Duckett at the University of Michigan) were cultured (37°C and 5% CO2 in RPMI 1640 containing 2 mM L-glutamine (PAN Biotech, Aidenbach, Germany) supplemented with 10% FCS gold (PAA Laboratories, Cölbe, Germany) and 1% Pyruvat (Sigma Deisenhofen, Germany).
(§1) Detection an Quantification of Apoptosis. Quantification of apoptosis was performed according to Nicoletti et al. (J Immunol. Methods (1991) 139, 271-279). Briefly, cells were incubated for 24 h in a hypotonic buffer (0.1% sodium citrate, 0.1% Triton-X-100 and 50 µg/ml PI) and analyzed by flow cytometry on a FACSCalibur (Becton Dickinson, Heidelberg, Germany). Nuclei to the left of the G1-peak containing hypodiploid DNA were considered apoptotic.
Compounds were first tested for their apoptotic potential in Jurkat cells alone as well as in combination with sub-optimal concentrations of etoposide. […] Similar results were obtained for compound II-1 (55.8% apoptotic cells). Table 1: Percentage of apoptotic Jurkat cells measured after application of medium control, 0.75 µM etoposide, 25 µM test substance, and a mixture of 0.75 µM etoposide and 25 µM test substance, respectively.a

[2] = system: Jurkat cells overexpressing full-length XIAP or BIR-3/Ring; assay: Quantification of apoptosis in Jurkat cell lines overexpressing XIAP or BIR-3/Ring; type: cell-based, Human; settings: wild type Jurkat cells and Jurkat cells overexpressing full-length XIAP or BIR-3/Ring; with low dose of etoposide (Figure 1)
Procedure: Figure 1: Compound I-1 sensitizes different Jurkat cell lines towards etoposide-induced apoptosis. Compound I-1 was tested in wildtype human leukemia Jurkat T cells (A), as well as in Jurkat cells stably transfected with empty vector (B), full-length XIAP overexpressing Jurkat cells (C) or the […] domain overexpressing Jurkat cells (D). Cell death was evaluated as described under "Materials and Methods". Bars, the mean ± SE of three independent experiments performed in triplicate. *** P<0.001 (Anova/Bonferroni), n.s., not significant.
Cell Culture. […]
as §1, with “Nuclei to the left of the G1-peak containing hypodiploid DNA were considered apoptotic.” left out

Wildtype Jurkat cells = assay: Clonogenic assay; type: cell-based, Human; settings: 1h with 25µM compound and 500nM etoposide; colonies scored after 7 days (Figure 2)
Procedure: (§2) Figure 2: Compound I-1 sensitizes to a reduction of etoposide-induced clonogenic survival. Wild type Jurkat cells were left untreated (A) or treated for 1h with 25µM of compound I-1 (B), 500nM etoposide (C) or a combination of both (D). After replacement into fresh methylcellulose medium, cells were incubated for 7 days. Afterwards colony number was counted (E). Bars, the mean ± SE of three independent experiments. *** P<0.001 (Anova/Bonferroni). Figure 3: Compound I-1 increases initiator caspase activities. Wild type Jurkat cells were left untreated or treated with 25µM of compound I-1, 500nM etoposide or a combination of both for the indicated time periods. Fluorescence measurements were performed for caspase-9 (A) and caspase-3 (B). Protein concentration was used for normalization. Bars, the mean ± SE of three independent experiments performed in triplicate. *** P<0.001 (Anova/Bonferroni).
Clonogenic assay. Wildtype Jurkat cells were left untreated or treated for 1h with 25µM test compound, 500nM etoposide or a combination of both. Subsequently, cells were washed with PBS and resuspended in culture medium (5x10^5 cells/ml). Cell suspensions were diluted 1:10 with methylcellulose (0.52%) medium containing 40% FCS. Cells were seeded in 96-well plates (100 µl) and colonies were scored after 7 days of culture.

caspase-9 = assay: Caspase-9 activity assay (Ac-LEHD-AFC substrate); type: cell-based, Human; settings: 25µM compound with 500nM etoposide, wild type Jurkat cells (Figure 3)
Procedure: as §2
(§3) Caspase-9/3 activity assay. Caspase-9/3 activity was measured using caspase-9(Ac-LEHD-AFC) or caspase 3(Ac-DEVD-AFC) substrates (both from Bachem AG, Bubendorf, Germany). […] The reading was performed in a plate-reading multifunction photometer (SPECTRAFLUOR PLUS, Tecan, Crailsheim, Germany). The activity was calculated from the difference between fluorescence in the 0 point and after 1h (for caspase-3) or after 3h (for caspase-9). […]

caspase-3 = assay: Caspase-3 activity assay (Ac-DEVD-AFC substrate); type: cell-based, Human; settings: 25µM compound with 500nM etoposide, wild type Jurkat cells (Figure 3)
Procedure: as §2, §3

[3] = system: caspase-9, caspase-3 and PARP; assay: Western Blot analysis of caspase-9, caspase-3 and PARP cleavage; type: cell-based, Human; settings: 25µM compound with 500nM etoposide, wild type Jurkat cells, time dependent (Figure 4)
Procedure: Figure 4: Compound I-1 activates initiator caspases and induces PARP cleavage. Wild type Jurkat cells were left untreated or treated with 25µM of compound I-1, 500nM etoposide or a combination of both for the indicated time periods. Expression of caspase-9, caspase-3 and PARP was assessed by Western Blot analysis. Cleavage products are indicated by arrows. Ponceau S was used as loading control. A representative experiment out of three independent experiments is shown.
Western Blot Analysis. Cells were collected by centrifugation, washed with ice-cold PBS and lysed in 1% Triton X-100, 0.15 M NaCl and 30 mM Tris-HCl pH 7.5 with the protease inhibitor complete™ (Roche, Mannheim, Germany) for 30 min. Lysates were centrifuge at 10,000xg for 10 min at 4°C. Equal amounts of protein were separated by SDS-PAGE (12% for XIAP) transferred to polyvinylidene difluoride membranes (Immobilon-P™, Millipore, Eschborn, Germany). Equal protein loading was controlled by coomassie staining of gels. Membranes were blocked with 5% fat-free milk powder in PBS containing 0.05% Tween-20 (1 h) and incubated with specific antibodies against XIAP (mouse antibody IgG1, clone 28, BD Transduction Laboratories, Heidelberg, Germany) overnight at 4°C. […]

XIAP = target: T1, XIAP (Homo sapiens, UniProt P98170); assay: Western Blot analysis of XIAP protein level; type: cell-based; settings: 25µM compound alone as well as in combination with 500nM etoposide; 16 and 24 h (Figure 5)
T1 construct: endogenous in cells
Procedure: Figure 5: XIAP protein level is reduced by compound I-1. Cells were left untreated (CO) or treated with 25µM of compound I-1, 500nM etoposide or with combination of both for the indicated time periods. XIAP protein level was detected by Western Blot analysis. Ponceau S was used as loading control. A representative experiment out of three independent experiments is shown.
Western Blot Analysis. Cells were collected by centrifugation, washed with ice-cold PBS and lysed in 1% Triton X-100, 0.15 M NaCl and 30 mM Tris-HCl pH 7.5 with the protease inhibitor complete™ (Roche, Mannheim, Germany) for 30 min. Lysates were centrifuge at 10,000xg for 10 min at 4°C. Equal amounts of protein were separated by SDS-PAGE (12% for XIAP) transferred to polyvinylidene difluoride membranes (Immobilon-P™, Millipore, Eschborn, Germany). Equal protein loading was controlled by coomassie staining of gels. Membranes were blocked with 5% fat-free milk powder in PBS containing 0.05% Tween-20 (1 h) and incubated with specific antibodies against XIAP (mouse antibody IgG1, clone 28, BD Transduction Laboratories, Heidelberg, Germany) overnight at 4°C. Specific proteins were visualized by secondary antibodies conjugated to horseradish peroxidase and the ECL Plus™ Western Blotting detection reagent (Amersham Biosciences, Freiburg, Germany). […]

[4] = Etoposide 0.75µM and Substance 25µM

T1 sequence (P98170 whole entry): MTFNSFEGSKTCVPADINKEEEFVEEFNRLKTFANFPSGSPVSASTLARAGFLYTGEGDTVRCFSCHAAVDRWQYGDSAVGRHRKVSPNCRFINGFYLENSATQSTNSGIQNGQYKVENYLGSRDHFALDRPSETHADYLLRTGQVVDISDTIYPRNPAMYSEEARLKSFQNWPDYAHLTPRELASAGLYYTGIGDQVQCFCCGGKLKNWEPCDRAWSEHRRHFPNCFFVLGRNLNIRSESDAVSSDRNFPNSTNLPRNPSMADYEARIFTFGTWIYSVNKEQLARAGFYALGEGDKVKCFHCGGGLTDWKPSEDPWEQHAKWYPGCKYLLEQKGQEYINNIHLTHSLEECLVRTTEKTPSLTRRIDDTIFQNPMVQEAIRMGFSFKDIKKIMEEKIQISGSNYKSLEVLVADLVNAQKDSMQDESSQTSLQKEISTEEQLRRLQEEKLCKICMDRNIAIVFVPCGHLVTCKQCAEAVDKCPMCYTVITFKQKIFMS

| Compound | Percentage of apoptotic Jurkat cells [1, 4] | Percentage of apoptotic Jurkat cells ([1]; Substance 25µM alone) | apoptosis induced by subtoxic concentrations of etoposide [2] | clonogenic survival of etoposide treated Jurkat cells (Wildtype Jurkat cells) | caspase-9 activity induced by etoposide (caspase-9) | caspase-3 activity induced by etoposide (caspase-3) | cleavage of caspase-9 and -3 proforms as well as PARP induced by etoposide [3] | XIAP protein level (XIAP) | Percentage of apoptotic Jurkat cells ([1]; Etoposide 0.75µM alone) |
| --- | --- | --- | --- | --- | --- | --- | --- | --- | --- |
| CCc1cccc(CC)c1NC(=O)CN1CCC(NC(=O)c2cccc(F)c2)CC1 [Compound I-1] | 65.7% and 65.74±6.0% | 13.16±2.28% | potentiates apoptosis induced by subtoxic concentrations of etoposide | sensitizes for reduction of clonogenic survival of etoposide treated Jurkat cells | significantly increased | significantly increased | strong impact of compound I-1 on cleavage of caspase-9 and -3 proforms as well as PARP | able to reduce XIAP protein after 16 and 24 h | – |
| COc1cc([C@@H]2c3cc4c(cc3[C@@H](O[C@@H]3O[C@@H]5CO[C@@H](C)O[C@H]5[C@H](O)[C@H]3O)[C@H]3COC(=O)[C@H]23)OCO4)cc(OC)c1O [Etoposide, reference compound] | – | – | – | – | – | – | – | – | 30.66±9.89% and 31.31±2.74% |
| NNC(=O)CNC(c1ccccc1)c1cc(Br)ccc1NC(=O)c1ccccc1Br (centres unmarked) [II-1] | 55.8% and 55.82±12.23% | 10.69±1.25% | – | – | – | – | – | – | – |
